Tests used:
Type in all cases: in vivo
Botrytis cinerea = test: Test E: tomato Botrytis control on tomato seedlings; conditions: 100 = 100% disease control, 0 = no control
[1] = test system: Erysiphe graminis f. sp. tritici; test: Test G: wheat powdery mildew control on wheat seedlings; conditions: 100 = 100% disease control, 0 = no control
Phakopsora pachyrhizi = test: Test A: Asian soybean rust control on soybean seedlings; conditions: soybean seedlings, 100 = 100% disease control, 0 = no control
Phytophthora infestans = test: whole plant or invertebrate; conditions: tomato seedlings, 100 = 100% disease control, 0 = no control
[2] = test system: Puccinia recondita f. sp. tritici; test: Test B: wheat leaf rust control on wheat seedlings; conditions: wheat seedlings, 100 = 100% disease control, 0 = no control
Plasmopara viticola = test: Test D: grape downy mildew control on grape seedlings; conditions: 100 = 100% disease control, 0 = no control
Zymoseptoria tritici = test: Test C: wheat leaf blotch control on wheat seedlings; conditions: wheat seedlings, 100 = 100% disease control, 0 = no control

Compound | Test E disease control rating (Botrytis cinerea; 250 ppm) [%] | Test G disease control rating ([1]; 250 ppm) [%] | Test A disease control rating (Phakopsora pachyrhizi; 250 ppm) [%] | Test F disease control rating (Phytophthora infestans; 250 ppm) [%] | Test B disease control rating ([2]; 250 ppm) [%] | Test D disease control rating (Plasmopara viticola; 250 ppm) [%] | Test C disease control rating (Zymoseptoria tritici; 250 ppm) [%] | also measured
COc1ccnc(C(=O)NC(C)C(=O)OC(C)c2ccc(F)cc2Cc2ccccc2)c1O (mixture of isomers) [Compound 12] | 0 | 0 | 99 | 0 | 97 | 83 | 0 | –
COc1ccnc(C(=O)NC(C)C(=O)OC(C)c2ccccc2Cc2ccc(F)cc2)c1O (mixture of isomers) [Compound 13] | 0 | 0 | 100 | 0 | 100 | 50 | 73 | –
COc1ccnc(C(=O)NC(C)C(=O)OC(C)c2ccc(F)cc2)c1OC(C)=O (mixture of isomers) [Compound 15] | 0 | 0 | 75 | 0 | 19 | 39 | 69 | –
COc1ccnc(C(=O)NC(C)C(=O)OC(C)c2ccccc2[N+](=O)[O-])c1O (mixture of isomers) [Compound 16] | 0 | 0 | 13 | 0 | 0 | 59 | 76 | –
COc1ccnc(C(=O)NC(C)C(=O)OC(C)c2ccccc2C(F)(F)F)c1O (mixture of isomers) [Compound 17] | – | – | – | – | – | – | – | Test E disease control rating (Botrytis cinerea; 150 ppm): 0%; Test G disease control rating ([1]; 150 ppm): 0%; Test A disease control rating (Phakopsora pachyrhizi; 150 ppm): 66%; Test F disease control rating (Phytophthora infestans; 150 ppm): 0%; Test B disease control rating ([2]; 150 ppm): 41%; Test D disease control rating (Plasmopara viticola; 150 ppm): 23%; Test C disease control rating (Zymoseptoria tritici; 150 ppm): 92%
COc1ccnc(C(=O)NC(C)C(=O)OC(C)c2ccccc2C(F)(F)F)c1OC(C)=O (mixture of isomers) [Compound 18] | 0 | 0 | 62 | 0 | 68 | 35 | 93 | –
COc1ccnc(C(=O)NC(C)C(=O)OC(C)c2ccc([N+](=O)[O-])cc2)c1OC(C)=O (mixture of isomers) [Compound 20] | 0 | 0 | 0 | 0 | 68 | 4 | 64 | –
COc1ccnc(C(=O)NC(C)C(=O)OC(C)c2ccccc2-n2ccc(C(F)(F)F)n2)c1OC(C)=O (mixture of isomers) [Compound 25] | 0 | 0 | 97 | 0 | 0 | 41 | 17 | –
COc1ccnc(C(=O)NC(C)C(=O)OC(C)c2ccccc2-n2ccc(C(F)(F)F)n2)c1O (mixture of isomers) [Compound 26] | 0 | 0 | 73 | 0 | 0 | 43 | 47 | –
COc1ccnc(C(=O)NC(C)C(=O)OC(C)c2cccc(-n3ccc(C(F)(F)F)n3)c2)c1OC(C)=O (mixture of isomers) [Compound 27] | 0 | 0 | 98 | 0 | 99 | 38 | 81 | –
COc1ccnc(C(=O)NC(C)C(=O)OC(C)c2cccc(-n3ccc(C(F)(F)F)n3)c2)c1O (mixture of isomers) [Compound 28] | 0 | 0 | 99 | 0 | 74 | 40 | 90 | –
COc1ccnc(C(=O)NC(C)C(=O)OC(C)c2ccc(C#N)cc2)c1OC(C)=O (mixture of isomers) [Compound 33] | 0 | 0 | 13 | 0 | 0 | 66 | 87 | –
COc1ccnc(C(=O)NC(C)C(=O)OC(C)c2ccc(C#N)cc2)c1O (mixture of isomers) [Compound 34] | 0 | 0 | 0 | 0 | 0 | 58 | 13 | –
COc1ccnc(C(=O)NC(C)C(=O)OC(C)c2ccc(C(F)(F)F)cc2)c1OC(C)=O (mixture of isomers) [Compound 35] | 0 | 0 | 100 | 0 | 100 | 68 | 80 | –
COc1ccnc(C(=O)NC(C)C(=O)OC(C)c2ccc(C(F)(F)F)cc2)c1O (mixture of isomers) [Compound 36] | 0 | 0 | 100 | 0 | 99 | 72 | 81 | –
COc1ccnc(C(=O)NC(C)C(=O)OC(C)C23CC4CC(CC(C4)C2)C3)c1OC(C)=O (mixture of isomers) [Compound 43] | 0 | 0 | 100 | 0 | 100 | 71 | 90 | –
CCOC(=O)c1cnn(-c2ccc(C(C)OC(=O)C(C)NC(=O)c3nccc(OC)c3OC(C)=O)cc2)c1 (mixture of isomers) [Compound 47] | 0 | 0 | 99 | 0 | 68 | 20 | 51 | –
CCOC(=O)c1ccn(-c2ccc(C(C)OC(=O)C(C)NC(=O)c3nccc(OC)c3OC(C)=O)cc2)n1 (mixture of isomers) [Compound 48] | 0 | 0 | 55 | 0 | 55 | 4 | 8 | –
CCOC(=O)c1ccn(-c2ccc(C(C)OC(=O)C(C)NC(=O)c3nccc(OC)c3O)cc2)n1 (mixture of isomers) [Compound 49] | 0 | 0 | 97 | 0 | 41 | 17 | 0 | –
COc1ccnc(C(=O)NC(C)C(=O)OC(C)c2ccc(OC3CCCCC3)cc2)c1O (mixture of isomers) [Compound 53] | 0 | 0 | 56 | 0 | 55 | 22 | 22 | –
COc1ccnc(C(=O)NC(C)C(=O)OC(C)c2ccccc2Oc2ccc(F)cc2)c1OC(C)=O (mixture of isomers) [Compound 61] | 0 | 0 | 0 | 0 | 55 | 15 | 0 | –
COc1ccnc(C(=O)N[C@@H](C)C(=O)O[C@@H](C)C2CCCCC2)c1OC(C)=O [Compound 87, N-[[3-(acetyloxy)-4-methoxy-2-pyridinyl]carbonyl]-L-alanine (1S)-1-cyclohexylethyl ester] | – | – | – | – | – | – | – | pest or weed control at 250 ppm (Botrytis cinerea; Botrytis cinerea, 250 ppm, read-out: Test E disease control rating): 0%; pest or weed control at 250 ppm ([1]; Blumeria graminis, 250 ppm, read-out: Test G disease control rating): 0%; pest or weed control at 250 ppm (Phakopsora pachyrhizi; Phakopsora pachyrhizi, 250 ppm, read-out: Test A disease control rating): 100%; pest or weed control at 250 ppm (Phytophthora infestans; Phytophthora infestans, in Solanum lycopersicum, read-out: Test F disease control rating, 250 ppm): 47%; pest or weed control at 250 ppm (Plasmopara viticola; Plasmopara viticola, 250 ppm, read-out: Test D disease control rating): 21%; pest or weed control at 250 ppm (Zymoseptoria tritici; Zymoseptoria tritici, 250 ppm, read-out: Test C disease control rating): 95%
